The structures appear in SMILES notation.

This data set has as its system myeloma bone lesion. As to the kind of experiment: [^18F]-FACBC PET and fused PET/CT imaging of the lumbar vertebrae. The conditions noted are these: coronal PET and PET/CT of lumbar vertebrae; PET acquisition started 5 minutes after administration of 319 MBq. Type of data set: in vivo. The protocol:
In an exemplary method, lesion [^18F]-FACBC uptake is visually compared to [^18F]-FACBC activity in the bone marrow. [^18F]-FACBC uptake higher than the bone marrow is considered as suspicious for myeloma. [^18F]-FACBC uptake similar or less than the bone marrow is considered as non-suspicious for myeloma.
FIG. 1: Coronal [^18F]-FACBC PET (left) and fused PET/CT (right) images of the lumbar vertebrae. […] The PET scan acquisition was started 5 minutes after administration of 319 MBq of [^18F]-FACBC.
In an aspect of the present disclosure, there is provided a method of diagnosing myeloma bone lesions in a subject comprising the steps of: • (a) administering a detectable amount of [^18F]-FACBC to the subject; • (b) acquiring one or more positron emission tomography (PET) scan images of the subject for a region of the subject that includes a potential myeloma bone lesion; and • (c) comparing [^18F]-FACBC uptake in the potential lesion against [^18F]-FACBC uptake in the bone marrow of the region of the subject; wherein lesion [^18F]-FACBC uptake which is higher than bone marrow [^18F]-FACBC uptake is indicative of the presence of myeloma bone lesions.

As for `N[C@]1(C(=O)O)C[C@@H](F)C1` [[^18F]-FACBC, anti-1-amino-3-^18F-fluorocyclobutane-1-carboxylic acid], the “[^18F]-FACBC uptake in area diagnosed as a lesion compared with surrounding bone marrow” value is given as “higher than the surrounding bone marrow”.

The record behind these values is patent publication US20230218255A1, “IMAGING OF MYELOMA BONE LESIONS” (Blue Earth Diagnostics Limited, priority 2022, published 2023).
